Test results published in patent US8394967B2, “Antioxidant inflammation modulators: C-17 homologated oleanolic acid derivatives” (Reata Pharmaceuticals, Inc., priority 2008, dated 2013).

Experiments:
[1] = Aqueous solubility determination (Millipore Multiscreen solubility filter plate, UV/vis); type: physicochemical; conditions: Universal Aqueous Buffer pH 7.4, 90 minutes at room temperature
Experimental: Aqueous Solubility Determination. The following procedure was used to obtain the aqueous solubility results summarized in Example 4. Step 1. Determination of optimal UV/vis wavelengths and generation of standard curves for a compound of interest: • (1) For eight standard calibration curves (one plate), prepare 34 mL of 50:50 (v:v) universal buffer:acetonitrile in a 50 mL tube. • (2) Using a multichannel pipet, dispense (in μL) the buffer:acetonitrile in a deep well plate as follows:
• (6) Cover plate with lid and shake (200-300 rpm) at room temperature for 20 minutes. • (7) Mix all wells by pipetting up and down 10 times. • (8) Transfer 120 μL from each well to a UV transparent plate. Cover and shake for 3-5 minutes. Remove any bubbles in the wells using a pipet. • (9) Read from 220 nm to 500 nm at 10 nm increments on a spectrophotometer (e.g., SpectraMax®).
Step 2. […]
Solubility Protocol: • (a) Add 285 μL of Universal Aqueous Buffer to desired wells of the Millipore™ Multiscreen® Solubility filter plate. • (b) Add 15 μL of 10 mM compound in DMSO to the appropriate wells. […] Remove any bubbles with a pipet. • (i) Measure the absorbance of each well in the plate on the spectrophotometer (UV/vis) at the desired wavelength. […]
The aqueous solubility of the compounds shown here was determined using the procedures outlined in Example 1.

[2] = test system: NO production in RAW264.7 macrophages; experiment: Inhibition of NO production in IFNγ-treated RAW264.7 macrophages (Griess reagent); type: cell-based, mouse; conditions: Mus musculus, RAW264.7, RAW264.7 macrophages pre-treated 2 hours, then 20 ng/ml IFNγ for 24 hours
Experimental: (§1) FIGS. 1-4, 6 and 8. Inhibition of NO Production. RAW264.7 macrophages were pre-treated with DMSO or drugs at various concentrations (nM) for 2 hours, then treated with 20 ng/ml IFNγ for 24 hours. NO concentration in media was determined using a Griess reagent system; cell viability was determined using WST-1 reagent.
(§2) Nitric Oxide production and cell viability. RAW264.7 macrophages were pre-treated with DMSO or drugs for 2 hours, then treated with recombinant mouse IFNγ (Sigma) for 24 hours. NO concentration in media was determined using the Griess reagent system (Promega). Cell viability was determined using WST-1 reagent (Roche).

[3] = test system: NQO1; experiment: Nrf2 target gene induction, MDA-MB-435 (qPCR): NQO1; type: cell-based; conditions: Homo sapiens; MDA-MB-435, 250 nM, 16 hours, mRNA by qPCR
[4] = test system: HO-1; experiment: Nrf2 target gene induction, MDA-MB-435 (qPCR): HO-1; type: cell-based; conditions: Homo sapiens; MDA-MB-435, 250 nM, 16 hours, mRNA by qPCR
Experimental: (§3) Nrf2 target gene induction. MDA-MB-435 human melanoma cells were treated with vehicle (DMSO) or the indicated compounds and concentrations for 16 hours. HO-1, thioredoxin reductase-1 (TrxR1), γ-glutamylcysteine synthetase (γ-GCS), and ferritin heavy chain mRNA levels were quantified using qPCR and were normalized relative to a DMSO-treated sample run in parallel. Values are averages of duplicate wells. Primer sequences are as follows.

[5] = test system: γ-GCS; experiment: Nrf2 target gene induction, MDA-MB-435 (qPCR): γ-GCS; type: cell-based; conditions: Homo sapiens; MDA-MB-435, 250 nM, 16 hours, mRNA by qPCR
Experimental: as §3

[6] = test system: RAW264.7 macrophages; experiment: Cell viability of RAW264.7 macrophages (WST-1 reagent); type: cell-based, mouse; conditions: Mus musculus, RAW264.7, 24 h, cell viability, RAW264.7, 20 ng/ml IFNγ 24 hours, WST-1 reagent; read-out: RAW264.7 (20 ng/ml IFNγ) WST-1 IC50
Experimental: as §1, §2

[7] = TP levels in mouse brain after feeding in diet (LC/MS); type: in vivo; conditions: CD-1 mice fed 200 or 400 mg/kg diet for 3.5 days
Experimental: FIG. 7. […] CD-1 mice were fed either 200 or 400 mg/kg diet of either TP-319 or TP-500 for 3.5 days, and TP levels in the brains of the mice were analyzed by LC/MS. The structures of TP-319 and TP-500 are shown herein.

| SMILES | Aqueous Solubility [1] [µM] | IC50 [2] [nM] | fold induction at 0.25 µM [3] | fold induction at 0.25 µM [4] | fold induction at 0.25 µM [5] | IC50 [6] [nM] | TP levels in the brains of the mice [7] |
| --- | --- | --- | --- | --- | --- | --- | --- |
| CC1(C)CC[C@]2(N)CC[C@]3(C)[C@H](C(=O)C[C@@H]4[C@@]5(C)C=C(C#N)C(=O)C(C)(C)[C@@H]5CC[C@]43C)[C@@H]2C1 [Compound 63198] | 163.6 |  |  |  |  |  |  |
| CC1(C)CC[C@]2(N)CC[C@]3(C)[C@H](C(=O)C[C@@H]4[C@@]5(C)C=C(C#N)C(=O)C(C)(C)[C@@H]5CC[C@]43C)[C@@H]2C1 [Compound 63208] | 9.49 |  |  |  |  |  |  |
| CC1(C)CC[C@]2(CNC(=O)C(F)(F)F)CC[C@]3(C)[C@H](C(=O)C[C@@H]4[C@@]5(C)C=C(C#N)C(=O)C(C)(C)[C@@H]5CC[C@]43C)[C@@H]2C1 [Compound 63226, N-(((4aS,6aR,6bR,12aR,14aR,14bS)-11-cyano-2,2,6a,6b,9,9,12a-heptamethyl-10,14-dioxo-1,2,3,4,4a,5,6,6a,6b,7,8,8a,9,10,12a,12b,13,14,14a,14b-icosahydropicen-4a-yl)methyl)-2,2,2-trifluoroacetamide] |  | ~12 | 2 | 4 | 6 | > 200 |  |
| COC[C@]12CCC(C)(C)C[C@H]1[C@H]1C(=O)C[C@@H]3[C@@]4(C)C=C(C#N)C(=O)C(C)(C)[C@@H]4CC[C@@]3(C)[C@]1(C)CC2 [Compound 63228, (4aR,6aR,6bR,8aS,12aS,12bR,14aR,14bR)-8a-(methoxymethyl)-4,4,6a,6b,11,11,14b-heptamethyl-3,13-dioxo-3,4,4a,5,6,6a,6b,7,8,8a,9,10,11,12,12a,12b,13,14,14a,14b-icosahydropicene-2-carbonitrile] |  | ~25 | 2 | 2 | 4 | 200 |  |
| CC1(C)CC[C@]2(CCO)CC[C@]3(C)[C@H](C(=O)C[C@@H]4[C@@]5(C)C=C(C#N)C(=O)C(C)(C)[C@@H]5CC[C@]43C)[C@@H]2C1 [Compound 63231, (4aR,6aR,6bR,8aR,12aS,12bR,14aR,14bR)-8a-(2-hydroxyethyl)-4,4,6a,6b,11,11,14b-heptamethyl-3,13-dioxo-3,4,4a,5,6,6a,6b,7,8,8a,9,10,11,12,12a,12b,13,14,14a,14b-icosahydropicene-2-carbonitrile] |  | ~15 | 2.1 | 1.2 | 5 | > 200 |  |
| Cc1cc(CNC[C@]23CCC(C)(C)C[C@H]2[C@H]2C(=O)C[C@@H]4[C@@]5(C)C=C(C#N)C(=O)C(C)(C)[C@@H]5CC[C@@]4(C)[C@]2(C)CC3)no1 [Compound 63232, (4aR,6aR,6bR,8aS,12aS,12bR,14aR,14bR)-4,4,6a,6b,11,11,14b-heptamethyl-8a-(((5-methylisoxazol-3-yl)methylamino)methyl)-3,13-dioxo-3,4,4a,5,6,6a,6b,7,8,8a,9,10,11,12,12a,12b,13,14,14a,14b-icosahydropicene-2-carbonitrile] |  | ~20 | 3.8 | 5 | 13.6 | > 200 |  |
| CC1(C)CC[C@]2(CNC(=O)OC(C)(C)C)CC[C@]3(C)[C@H](C(=O)CC4[C@@]5(C)C=C(C#N)C(=O)C(C)(C)C5CC[C@]43C)[C@@H]2C1 (stereo partly drawn) [Compound 63253, tert-butyl((4aS,6aR,6bR,12aR,14aR,14bS)-11-cyano-2,2,6a,6b,9,9,12a-heptamethyl-10,14-dioxo-1,2,3,4,4a,5,6,6a,6b,7,8,8a,9,10,12a,12b,13,14,14a,14b-icosahydropicen-4a-yl)methylcarbamate] |  | ~20 | 1.5 | 2 | 3 | ~200 |  |
| CC1(C)CC[C@]2(C(=O)NCC(F)(F)F)CC[C@]3(C)[C@H](C(=O)C=C4[C@@]5(C)C=C(C#N)C(=O)C(C)(C)[C@@H]5CC[C@]43C)[C@@H]2C1 [TP-500] |  |  |  |  |  |  | Higher Levels in Mouse Brain than CDDO-EA (TP-319) |
